Results on four molecules are retold here after US6444617B1, “Fused-heterocycle dicarboxylic acid diamide derivatives or salts thereof, herbicide and usage thereof” (Nihon Nohyaku Co., Ltd., priority 1998, dated 2002).

Assay type in all cases: in vivo
Series [1] relates to barnyard grass (Echinochloa crus-galli Beauv.). As to the kind of experiment: Test Example 1: herbicidal effect on paddy field weeds before emergence. As to conditions: Dosage 5 kg/ha. In a few lines: (§1)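 Soil in pots is brought to paddy state and seeded with barnyard grass and bulrush; before germination, the soil receives a predetermined dosage of test compound in solution. After twenty-one days, control rate relative to untreated pots is calculated and graded.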

Series [2] concerns bulrush (Scirpus juncoides Roxb.). The description is as above. As to conditions: Dosage 5 kg/ha. The gist of the method:
as §1

The test system of series [3] is barnyard grass (Echinochloa crus-galli Beauv.). As to the kind of experiment: Test Example 2: herbicidal effect on paddy field weeds after emergence. The following applies: Dosage 5 kg/ha; one-leaved stage; 21 days after treatment. The gist of the method: (§2)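 Weeds were sown in 1/10000 are pots of soil flooded to paddy conditions and grown to the one-leaf stage, then the soil was treated with a solution of compound at a predetermined dosage.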

Series [4] concerns bulrush (Scirpus juncoides Roxb.). The description is as above. The following applies: Dosage 5 kg/ha; one-leaved stage; 21 days after treatment. In a few lines:
as §2

The subject of series [5] is monochoria (Monochoria vaginalis Presl). The description is as above. As to conditions: Dosage 5 kg/ha; one-leaved stage; 21 days after treatment. In a few lines:
as §2

In series [6] the test system is barnyard grass (Echinochloa crus-galli Beauv.), Ec. As to the kind of experiment: Test Example 3: herbicidal effect on upland weeds before emergence. The following applies: dosage 5 kg/ha. The gist of the method: (§3)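 Read-out is the weed-killing rate, scored fourteen days after a single spray application made before the weeds emerged. The spray was a liquid agent carrying the active compound at a prescribed dose.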

The subject of series [7] is bird's eye speedwell (Veronica persica Poir.), Vp. The description is as above. As to conditions: dosage 5 kg/ha. In a few lines:
as §3

Series [8] concerns cleavers (Galium aparine L.), Ga. The series is described as above. As to conditions: dosage 5 kg/ha. In a few lines:
as §3

The test system of series [9] is cocklebur (Xanthium strumarium L.), Xs. The description is as above. The following applies: dosage 5 kg/ha. The gist of the method:
as §3

Series [10] relates to forxtail grass (Alopecurus aequalis var. amurensis Ohwi), Am. Described as above. As to conditions: foxtail grass, dosage 5 kg/ha. The gist of the method:
as §3

Series [11] relates to velvetleaf (Abutilon theophtasti L.), At. The series is described as above. As to conditions: dosage 5 kg/ha. The gist of the method: as §3
In another series the test system is soybean plant (So). As to the kind of experiment: Test Example 3: phytotoxicity to upland crop plants, treatment before emergence. The following applies: dosage 5 kg/ha. In a few lines:
(§4)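 Pre-emergence spray, test compound at prescribed conc. in liquid formulation; crop injury (soybean, wheat) read at day 14, scored by criterion.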

The test system of the next series is wheat (Wh). Described as above. The following applies: dosage 5 kg/ha. In a few lines:
as §4

The test system of series [12] is barnyard grass (Echinochloa crus-galli Beauv.), Ec. As to the kind of experiment: Test Example 4: herbicidal effect on upland weeds after emergence. The following applies: dosage 5 kg/ha; sprayed after emergence; judged 14 days after treatment. In a few lines: (§5)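 Post-emergence foliar spray, compound at prescribed concentration, applied at defined leaf stages; weeds plus soybean/wheat grown in soil vats. Read-out: weed-killing rate and crop injury, 14 d post-treatment.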

Series [13] relates to bird's eye speedwell (Veronica persica Poir.), Vp. The description is as above. As to conditions: dosage 5 kg/ha; sprayed after emergence; judged 14 days after treatment. The gist of the method: as §5
Series [14] concerns cleavers (Galium aparine L.), Ga. Described as above. As to conditions: dosage 5 kg/ha; sprayed after emergence; judged 14 days after treatment. The gist of the method: as §5
The test system of series [15] is cocklebur (Xanthium strumarium L.), Xs. The description is as above. The following applies: dosage 5 kg/ha; sprayed after emergence; judged 14 days after treatment. The gist of the method:
as §5

Series [16] relates to forxtail grass (Alopecurus aequalis var. amurensis Ohwi), Am. Described as above. The following applies: dosage 5 kg/ha; sprayed after emergence; judged 14 days after treatment. The gist of the method: as §5
For series [17], the system named is velvetleaf (Abutilon theophtasti L.), At. The series is described as above. The following applies: dosage 5 kg/ha; sprayed after emergence; judged 14 days after treatment. In a few lines:
as §5

In the next series the test system is soybean plant. As to the kind of experiment: Test Example 4: phytotoxicity to upland crop plants, treatment after emergence. As to conditions: dosage 5 kg/ha, sprayed after emergence, judged 14 days after treatment. The gist of the method: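 Weeds and soybean grown in soil-filled vats to set leaf stages, then sprayed post-emergence with the compound at a prescribed concentration. Weed-killing rate and crop phytotoxicity judged 14 days after treatment.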

For the next series, the system named is wheat. The series is described as above. As to conditions: dosage 5 kg/ha, sprayed after emergence, judged 14 days after treatment. In a few lines:
as §5

For `Cc1c(Cl)cccc1NC(=O)c1cc2c(C)noc2nc1C(=O)NC1CCCC1` [compound 1085], the “Pre-emergence treatment Barnyard grass (herbicidal effect)” value (shortened to “Pre-emergence treatment Barnyard grass”) in series [1] is 5 (Weed-killing rate is 100%.). The “Pre-emergence treatment Bulrush (herbicidal effect)” value (shortened to “Pre-emergence treatment Bulrush”) in series [2] is on record as 5 (Weed-killing rate is 100%.). In series [3], the “Post-emergence treatment Barnyard grass (herbicidal effect)” value (“Post-emergence treatment Barnyard grass” below) is on record as 5 (Weed-killing rate is 100%.). In [4], the “Post-emergence treatment Bulrush (herbicidal effect)” value (from here on “Post-emergence treatment Bulrush”) is reported as 5 (Weed-killing rate is 100%.). In addition, the “Post-emergence treatment Monochoria (herbicidal effect)” value (“Post-emergence treatment Monochoria” below) in [5] was 5 (Weed-killing rate is 100%.). For the same molecule, the “Herbicidal effect Ec” value in [6] and in [12] was 5 (Weed-killing rate is 100%.) in each case. For the same molecule, the “Herbicidal effect Vp” value in [7] and in series [13] was 5 (Weed-killing rate is 100%.) in each case. The “Herbicidal effect Ga” value in [8] is 5 (Weed-killing rate is 100%.); in [14], 4 (Weed-killing rate is 90-99%.). In addition, the “Herbicidal effect Xs” value in series [9] and in series [15] was 5 (Weed-killing rate is 100%.) each time. In addition, the “Herbicidal effect Am” value in series [10] and in series [16] was 5 (Weed-killing rate is 100%.) throughout. Also, the “Herbicidal effect At” value in series [11] and in series [17] was 5 (Weed-killing rate is 100%.) throughout. Besides, the “Phytotoxicity So” value with soybean plant (So) and in the series with soybean plant was 4 (Crop-killing rate is 90-99%.) in each case. The “Phytotoxicity Wh” value in the series with wheat (Wh) and with wheat was 5 (Crop-killing rate is 100%.) in each case.
For the molecule `CCc1ccc(Cl)c(CC)c1NC(=O)c1nc2ccccc2nc1C(=O)NCC(C)C` [compound 1311], in [1], the “Pre-emergence treatment Barnyard grass” value is on record as 5 (Weed-killing rate is 100%.). Also, the “Pre-emergence treatment Bulrush” value in [2] is listed as 5 (Weed-killing rate is 100%.). In addition, the “Post-emergence treatment Barnyard grass” value in [3] is 5 (Weed-killing rate is 100%.). The “Post-emergence treatment Bulrush” value in series [4] is listed as 5 (Weed-killing rate is 100%.). In addition, in series [5], the “Post-emergence treatment Monochoria” value is listed as 5 (Weed-killing rate is 100%.). The “Herbicidal effect Ec” value in series [6] and in series [12] was 5 (Weed-killing rate is 100%.) each time. Besides, the “Herbicidal effect Vp” value in series [7] and in series [13] was 5 (Weed-killing rate is 100%.) throughout. In addition, the “Herbicidal effect Ga” value in series [8] and in series [14] was 5 (Weed-killing rate is 100%.) each time. Moreover, the “Herbicidal effect Xs” value in series [9] and in series [15] was 5 (Weed-killing rate is 100%.) in each case. Moreover, the “Herbicidal effect Am” value in series [10] and in [16] was 5 (Weed-killing rate is 100%.) each time. Further, the “Herbicidal effect At” value in series [11] and in series [17] was 5 (Weed-killing rate is 100%.) throughout. The “Phytotoxicity So” value with soybean plant (So) and in the series on soybean plant was 5 (Crop-killing rate is 100%.) each time. For the same molecule, the “Phytotoxicity Wh” value in the series with wheat (Wh) and in the series on wheat was 5 (Crop-killing rate is 100%.) each time.
Regarding `CCCNC(=O)c1nc2cc(F)ccc2cc1C(=O)Nc1c(CC)ccc(Cl)c1CC` [Compound No. 158, 3-(3-Chloro-2,6-diethylphenyl)-aminocarbonyl-7-fluoro-2-quinolinecarboxylic Acid n-Propylamide], the “Pre-emergence treatment Barnyard grass” value in series [1] is given as 5 (Weed-killing rate is 100%.). The “Pre-emergence treatment Bulrush” value in [2] is 5 (Weed-killing rate is 100%.). For the same molecule, in series [3], the “Post-emergence treatment Barnyard grass” value is on record as 5 (Weed-killing rate is 100%.). The “Post-emergence treatment Bulrush” value in series [4] is given as 5 (Weed-killing rate is 100%.). Also, the “Post-emergence treatment Monochoria” value in [5] is 5 (Weed-killing rate is 100%.). In addition, the “Herbicidal effect Ec” value in series [6] and in series [12] was 5 (Weed-killing rate is 100%.) throughout. Besides, the “Herbicidal effect Vp” value in series [7] and in [13] was 5 (Weed-killing rate is 100%.) throughout. Further, the “Herbicidal effect Ga” value in series [8] and in series [14] was 5 (Weed-killing rate is 100%.) in each case. The “Herbicidal effect Xs” value in [9] and in [15] was 4 (Weed-killing rate is 90-99%.) each time. The “Herbicidal effect Am” value in [10] and in series [16] was 4 (Weed-killing rate is 90-99%.) in each case. For the same molecule, the “Herbicidal effect At” value in [11] and in [17] was 5 (Weed-killing rate is 100%.) in each case. For the same molecule, the “Phytotoxicity So” value with soybean plant (So) is given as 1 (Crop-killing rate is 1-39%.); in the series on soybean plant it was 2 (Crop-killing rate is 40-69%.). The “Phytotoxicity Wh” value in the series with wheat (Wh) and in the series on wheat was 4 (Crop-killing rate is 90-99%.) in each case.
Consider `CCc1ccc(Cl)c(CC)c1NC(=O)c1cc2c(nc1C(=O)NC1CCCC1)SCCC2` [compound 519], for which the “Pre-emergence treatment Barnyard grass” value in [1] is 5 (Weed-killing rate is 100%.). The “Pre-emergence treatment Bulrush” value in series [2] is on record as 5 (Weed-killing rate is 100%.). For the same molecule, in [3], the “Post-emergence treatment Barnyard grass” value was 5 (Weed-killing rate is 100%.). In addition, the “Post-emergence treatment Bulrush” value in series [4] is recorded as 5 (Weed-killing rate is 100%.). The “Post-emergence treatment Monochoria” value in series [5] was 5 (Weed-killing rate is 100%.). The “Herbicidal effect Ec” value in [6] and in series [12] was 5 (Weed-killing rate is 100%.) throughout. Besides, the “Herbicidal effect Vp” value in series [7] and in series [13] was 5 (Weed-killing rate is 100%.) in each case. Besides, the “Herbicidal effect Ga” value in [8] and in [14] was 5 (Weed-killing rate is 100%.) throughout. The “Herbicidal effect Xs” value in series [9] and in series [15] was 5 (Weed-killing rate is 100%.) each time. The “Herbicidal effect Am” value in [10] and in series [16] was 5 (Weed-killing rate is 100%.) each time. The “Herbicidal effect At” value in series [11] and in series [17] was 5 (Weed-killing rate is 100%.) throughout. Besides, the “Phytotoxicity So” value in the series with soybean plant (So) and with soybean plant was 4 (Crop-killing rate is 90-99%.) each time. Moreover, the “Phytotoxicity Wh” value in the series on wheat (Wh) and in the series with wheat was 5 (Crop-killing rate is 100%.) throughout.
